Reference: patent EP4567040A1, “CRYSTAL FORM OF FUSED TRICYCLIC DERIVATIVE AND PREPARATION METHOD” (Jiangsu Hengrui Pharmaceuticals Co., Ltd., priority 2022, dated 2024)

Legend:
Format in all cases: physicochemical
[1] = Hygroscopicity study of free-state crystal forms (DVS); conditions: for 0.0% RH-80.0% RH (hygroscopicity, mass change): DVS, 25 °C; for Crystal form: crystal form after DVS test
Description: Testing was performed using Surface Measurement Systems advantage 2, at 25 °C, with the humidity changing from 50% -95%-0%-95%-50%RH, in steps of 10%. The criterion was that each gradient mass change dM/dT is less than 0.002%, TMAX 360 min, two cycles.
Surface Measurement Systems intrinsic DVS was adopted. At 25 °C, the crystal forms were tested in a humidity range of 0%-95%, with increments of 10%. The criterion was that each gradient mass change dM/dT is less than 0.002%, TMAX 360 min, two cycles.

[2] = Influencing factor stability study of crystal forms; conditions: for physical stability / chemical stability: 30-day influencing factor experiments; for chemical stability: high temperature and high humidity conditions
Description: Example 50. Influencing Factor Stability Study of Crystal Forms Free-state samples were spread out, left to stand in open flasks, and subjected to 30-day stability tests under light exposure (4500 Lux), high temperature (40 °C and 60 °C), and high humidity (RH 75% and RH 92.5%) conditions.

[3] = Long-term/accelerated stability of crystal forms; conditions: for Purity%: sealed in aluminum foil bag; for Crystal form: after standing up to 6 months; for physical stability and chemical stability: long-term accelerated conditions for 6 months
Description: Free-state samples were sealed in aluminum foil bags and left to stand under 25 °C/60% RH and 40 °C/75% RH conditions to test their stability.

[4] = Light exposure (4500 Lux), 7 days, open flask
[5] = Light exposure (4500 Lux), 14 days, open flask
[6] = Light exposure (4500 Lux), 30 days, open flask

SMILES | 0.0% RH-80.0% RH (hygroscopicity, mass change) [1] | Crystal form [1] | physical stability [2] | Purity% ([2]; 40 °C, 7 days, open flask) | chemical stability [2] | Purity% ([3]; 25 °C/60% RH, 1 month) | Purity% ([3]; 25 °C/60% RH, 2 months) | Purity% ([3]; 25 °C/60% RH, 3 months) | Purity% ([3]; 25 °C/60% RH, 6 months) | Purity% ([3]; 25 °C/60% RH, 14 days) | Purity% ([3]; 25 °C/60% RH, Initial) | Crystal form ([3]; 25 °C/60% RH) | Purity% ([3]; 40 °C/75% RH, 1 month) | Purity% ([3]; 40 °C/75% RH, 2 months) | Purity% ([3]; 40 °C/75% RH, 3 months) | Purity% ([3]; 40 °C/75% RH, 6 months) | Purity% ([3]; 40 °C/75% RH, 14 days) | Purity% ([3]; 40 °C/75% RH, Initial) | Crystal form ([3]; 40 °C/75% RH) | physical stability and chemical stability [3] | other results
C[C@H]1COc2c(-c3nc(N[C@@H]4CCOC[C@H]4O)ncc3Cl)cc(F)c3nc(C(C)(C)O)n1c23 [Crystal form D, (3S,4R)-4-((5-chloro-4-((S)-8-fluoro-2-(2-hydroxypropan-2-yl)-3-methyl-3,4-dihydro-5-oxa-1,2a-diazaacenaphthylen-6-yl)pyrimidin-2-yl)amino)tetrahydro-2H-pyran-3-ol] | 0.46% | No change | good physical stability | 99.9% | good chemical stability | 99.9% | 99.9% | 99.9% | 99.9% | 99.9% | 99.9% | No change | 99.9% | 99.9% | 99.9% | 99.9% | 99.9% | 99.9% | No change | good physical stability and chemical stability | Purity% ([2]; 40 °C, 14 days, open flask): 99.9%; Purity% ([2]; 40 °C, 30 days, open flask): 99.9%; Purity% ([2]; 60 °C, 7 days, open flask): 99.9%; Purity% ([2]; 60 °C, 14 days, open flask): 99.9%; Purity% ([2]; 60 °C, 30 days, open flask): 99.9%; Purity% ([2]; 75% RH, 7 days, open flask): 99.9%; Purity% ([2]; 75% RH, 14 days, open flask): 99.9%; Purity% ([2]; 75% RH, 30 days, open flask): 99.9%; Purity% ([2]; 92.5% RH, 7 days, open flask): 99.9%; Purity% ([2]; 92.5% RH, 14 days, open flask): 99.9%; Purity% ([2]; 92.5% RH, 30 days, open flask): 99.9%; Purity% ([2]; Initial, 0 days): 99.9%; Purity% [2, 4]: 96.0%; Purity% [2, 5]: 94.6%; Purity% [2, 6]: 92.8%
C[C@H]1COc2c(-c3nc(N[C@@H]4CCOC[C@H]4O)ncc3Cl)cc(F)c3nc(C(C)(C)O)n1c23 [Crystal form E, (3S,4R)-4-((5-chloro-4-((S)-8-fluoro-2-(2-hydroxypropan-2-yl)-3-methyl-3,4-dihydro-5-oxa-1,2a-diazaacenaphthylen-6-yl)pyrimidin-2-yl)amino)tetrahydro-2H-pyran-3-ol] | 3.45% | No change | good physical stability | 99.9% | good chemical stability | 99.9% | 99.9% | 99.9% | 99.9% | 99.9% | 99.9% | No change | 99.9% | 99.9% | 99.9% | 99.9% | 99.9% | 99.9% | No change | good physical stability and chemical stability | Purity% ([2]; 40 °C, 14 days, open flask): 99.8%; Purity% ([2]; 40 °C, 30 days, open flask): 99.8%; Purity% ([2]; 60 °C, 7 days, open flask): 99.9%; Purity% ([2]; 60 °C, 14 days, open flask): 99.9%; Purity% ([2]; 60 °C, 30 days, open flask): 99.9%; Purity% ([2]; 75% RH, 7 days, open flask): 99.9%; Purity% ([2]; 75% RH, 14 days, open flask): 99.8%; Purity% ([2]; 75% RH, 30 days, open flask): 99.8%; Purity% ([2]; 92.5% RH, 7 days, open flask): 99.9%; Purity% ([2]; 92.5% RH, 14 days, open flask): 99.8%; Purity% ([2]; 92.5% RH, 30 days, open flask): 99.8%; Purity% ([2]; Initial, 0 days): 99.9%; Purity% [2, 4]: 99.6%; Purity% [2, 5]: 99.3%; Purity% [2, 6]: 98.7%
C[C@H]1COc2c(-c3nc(N[C@@H]4CCOC[C@H]4O)ncc3Cl)cc(F)c3nc(C(C)(C)O)n1c23 [Crystal form F, (3S,4R)-4-((5-chloro-4-((S)-8-fluoro-2-(2-hydroxypropan-2-yl)-3-methyl-3,4-dihydro-5-oxa-1,2a-diazaacenaphthylen-6-yl)pyrimidin-2-yl)amino)tetrahydro-2H-pyran-3-ol] | 1.10% | No change | good physical stability |  | good chemical stability | 99.9% | 99.9% | 99.9% | 99.9% | 99.9% | 99.9% | No change | 99.9% | 99.9% | 99.9% | 99.9% | 99.9% | 99.9% | No change | good physical stability and chemical stability | 
